# Where “and” joins values, the source holds several entries; their conditions need not be identical. Equal entries are not always repeated.
# T1: BK B2-Receptor in h-NPE cells (Homo sapiens, UniProt P30411)
# T1 construct: we discovered and pharmacologically characterized B2-receptor proteins in h-TM, h-CM and h-NPE cells; endogenous in cells; host or cells: immortalized human non-pigmented ciliary epithelial (h-NPE) cells
# T1 sequence (P30411 1-391): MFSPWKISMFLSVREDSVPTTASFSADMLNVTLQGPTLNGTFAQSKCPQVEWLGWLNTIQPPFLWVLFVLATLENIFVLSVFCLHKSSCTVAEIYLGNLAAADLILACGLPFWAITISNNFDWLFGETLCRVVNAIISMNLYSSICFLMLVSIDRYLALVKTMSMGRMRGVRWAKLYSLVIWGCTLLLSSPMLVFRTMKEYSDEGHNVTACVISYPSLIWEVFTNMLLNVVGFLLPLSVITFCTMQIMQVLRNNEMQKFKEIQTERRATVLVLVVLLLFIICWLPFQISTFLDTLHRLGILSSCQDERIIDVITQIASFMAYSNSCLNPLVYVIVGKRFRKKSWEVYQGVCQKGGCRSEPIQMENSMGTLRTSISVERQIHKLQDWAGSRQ
# T2: BK B2-Receptor in h-TM cells (Homo sapiens, UniProt P30411)
# T2 construct: we discovered and pharmacologically characterized B2-receptor proteins in h-TM, h-CM and h-NPE cells; endogenous in cells; host or cells: primary human trabecular meshwork (h-TM) cells
# T2 sequence (P30411 1-391): T1 sequence (P30411 1-391)
# T3: BK B2-Receptor in h-CM cells (Homo sapiens, UniProt P30411)
# T3 construct: we discovered and pharmacologically characterized B2-receptor proteins in h-TM, h-CM and h-NPE cells; endogenous in cells; host or cells: primary human ciliary muscle (h-CM) cells
# T3 sequence (P30411 1-391): T1 sequence (P30411 1-391)
# T4: B2-receptors in h-NPE cells (Homo sapiens, UniProt P30411)
# T4 construct: we discovered and pharmacologically characterized B2-receptor proteins in h-TM, h-CM and h-NPE cells; endogenous in cells; host or cells: immortalized human non-pigmented ciliary epithelial (h-NPE) cells
# T4 sequence (P30411 1-391): T1 sequence (P30411 1-391)
# B1: TGFβ2: cytokine transforming growth factor-β2 (protein, UniProt P61812 303-414, looked up)
# Transforming growth factor …: ALDAAYCFRNVQDNCCLRPLYIDFKRDLGWKWIHEPKGYNANFCAGACPYLWSSDTQHSRVLSLYNTINPEASASPCCVSQDLEPLTILYYIGKTPKIEQLSNMIVKSCKCS
# Tests used:
# [1] = target: T1, BK B2-Receptor in h-NPE cells; test: Antagonism of BK-induced [Ca^2+]i mobilization in immortalized h-NPE cells; assay type: cell-based; conditions: read-out: Antagonist Potency (Ki; nM) vs BK (10 nM) in [Ca^2+]i Mobilization Assay, mean ± SEM or individual experiments
# Description: (§1) Opthalmol. Vis. Res. 47: 4001-4019, 2006; Sharif et al., J. Ocular Pharmacol. Ther. 22: 291-309, 2006).
# (§2) On the day of the experiment, one vial of FLIPR Calcium Assay Kit dye is re-suspended in 50 mL of a FLIPR buffer consisting of Hank's Balanced Salt Solution (HBSS), 20 mM HEPES, and 2.5 mM probenecid, pH 7.4. Cells are loaded with the calcium-sensitive dye by addition of an equal volume (50 μL) to each well of the 96-well plate and incubated with dye for 1 h at 23° C. After this time, the test compound plate and cell plate are placed in the FLIPR instrument. At the beginning of an experimental run, a signal test is performed to check the basal fluorescence signal from the dye-loaded cells and the uniformity of the signal across the plate. The basal fluorescence is adjusted between 8000-12000 counts by modifying the exposure time, the camera F-stop, or the laser power. Instrument settings for a typical assay are the following: laser power 0.3-0.6 W, camera F-stop F/2, and exposure time 0.4 sec.
# (§3) Fluorescence data are collected in real-time at 1.0 sec intervals for the first 60 secs and at 6.0 sec intervals for an additional 120 secs. […] The data are then analyzed using an automated, iterative, sigmoidal curve-fitting computer program to obtain the potency and intrinsic activities of the test agents as previously described (Sharif et al. J. Pharmacol. Exp. Ther. 286: 1094-1102, 1998; Sharif et al. Invest. Opthalmol. Vis. Sci. 39:2562-2571, 1998; Kelly et al. J. Pharmacol. Exp. Ther. 304: 238-245, 2003). The sources of materials and reagents for such assays can be found in the references cited above.
# [2] = target: T2, BK B2-Receptor in h-TM cells; test: Antagonism of BK-induced [Ca^2+]i mobilization in h-TM cells; assay type: cell-based; conditions: read-out: Antagonist Potency (Ki; nM) vs BK (10 nM) in [Ca^2+]i Mobilization Assay, mean ± SEM or individual experiments
# Description: as §1
# as §2, with “Instrument settings for a typical assay are the following: laser power 0.3-0.6 W, camera F-stop F/2, and exposure time 0.4 sec.” left out
# as §3, with “The sources of materials and reagents for such assays can be found in the references cited above.” left out
# [3] = target: T3, BK B2-Receptor in h-CM cells; test: Antagonism of BK-induced [Ca^2+]i mobilization in h-CM cells; assay type: cell-based; conditions: read-out: Antagonist Potency (Ki; nM) vs BK (10 nM) in [Ca^2+]i Mobilization Assay, mean ± SEM or individual experiments
# Description: as §1, §2, §3
# [4] = test system: rabbit IOP; test: Acute IOP response in rabbit eyes, intravitreal administration; assay type: in vivo; conditions: 50 μg, relative to vehicle alone
# Description: IOP is determined with an applanation pneumatonometer after light corneal anesthesia with 0.1% proparacaine. After baseline IOP measurements are taken, one eye of each of 7-10 (or both eyes of 5) rabbits per compound dose is topically dosed with compound. Either the contralateral eye is dosed with vehicle or a separate group of rabbits is used for vehicle control. Subsequent IOP measurements are taken at 0.5, 1, 2, 3, and 4 hours. In cases where the compound has poor ocular bioavailability, the compound may need to be administered intracamerally or intravitreally in order to observe the IOP-lowering efficacy.
# Conversely, non-peptidic BK antagonists dosed topical ocularly in the ocular hypertensive monkey eyes were ineffective at modulating IOP (see below Example 4).
# [5] = target: T4, B2-receptors in h-NPE cells; test: BK- and BK-related peptide-induced [Ca^2+]i mobilization in h-NPE cells (agonist potency); assay type: cell-based; conditions: BK = 100%, read-out: Intrinsic Activity (Emax, % max relative to BK)
# [6] = test system: Conscious Ocular Hypertensive Cynomolgus Monkey Eyes; test: IOP response in conscious ocular hypertensive cynomolgus monkey eyes; assay type: in vivo; conditions: for % Change in IOP (mmHg): topical ocular 300 μg, mean ± SEM; for modulation of IOP (in words): topically administered 300 μg, conscious cynomolgus monkeys
# Description: Intraocular pressure (IOP) is determined with an Alcon Pneumatonometer (Alcon Laboratories, Inc., Fort Worth, Tex.) after light corneal anesthesia with 0.1% proparacaine. Right eyes are hypertensive as a result of laser trabeculoplasty. After a baseline IOP measurement, test compound is instilled in the right eyes only of 8-10 cynomolgus monkeys. Vehicle is instilled in the right eyes of 5-6 additional animals. […] IOP measurements are also taken on left eyes (normotensive and untreated) at each of these time points. The percent change in IOP from baseline is determined for each animal for every IOP measurement (Sharif et al. J. Ocular Pharmacol. Ther. 17: 305-317, 2001; May et al., J Pharmacol Exp Ther. 306: 301-309, 2003; Sharif et al. Invest. Opthalmol. Vis. Res. 47: 4001-4010, 2006). Group mean and standard error of the mean (SEM) are calculated for each time point. […] In cases where the compound of invention has poor ocular bioavailability, the compound may need to be administered intracamerally or intravitreally in order to observe the IOP-lowering efficacy.
# [7] = test system: h-CM cells; test: Production and release of endogenous prostaglandins from h-CM cells; assay type: cell-based, human; conditions: BK 1 μM, relative to baseline and to fluprostenol
# Description: A functional assay to discover BK agonists may involve the measurement of prostaglandin E2 (PGE2) production (Wiernas et al. Brit. J. Pharmacol. 123: 1127-1137, 1998), for instance, in cells isolated from human or animal ocular or non-ocular tissues, or cells expressing recombinant (preferably human) BK receptors. Cells expressing BK receptors are seeded in 48-wells culture plates and allowed to reach confluence. After this time the cells are rinsed twice with 0.5 mL of phosphate buffered saline and incubated with the test agent made up in 0.5 mL Dulbeco's modified Eagle's medium (DMEM)/F-12 for 1 h at 37° C. […]
# After this incubation, all tubes are placed in an ice-bath and 1 ml cold precipitating reagent supplied in the kit is added to the tubes, the content mixed and incubated for 25 min at 4° C. […] The supernatants of all tubes are decanted as specified in the kit instructions and the RIA samples analyzed on a gamma-counter. The levels of PGE2 generated by the test agent are then quantified in comparison with the PGE2-standard curve. Dose-response data for the test agent are constructed and the potency and intrinsic activity determined as described above for other assays. […]
# [8] = test system: B2-receptor mRNA; test: Microarray analysis of B2-receptor mRNA in TGFβ2-treated human TM cells; assay type: cell-based
# [9] = test system: B1-receptor mRNA; test: Microarray analysis of B1-receptor mRNA in TGFβ2-treated human TM cells; assay type: cell-based; conditions: Glaucomatous h-TM cells, control 0.99 ± 0.58
molecule,measurement,setting,value
CC(=O)Nc1ccc(/C=C/C(=O)NCC(=O)N(C)c2ccc(Cl)c(COc3cccc4ccc(C)nc34)c2Cl)cn1 [FR-173657],Ki,[1],787 nM and 788 nM
same,Ki,[2],121 nM and 193 nM
same,Ki,[3],35 nM and 11 nM
N=C(N)NCCC[C@H](N)C(=O)N1CCC[C@H]1C(=O)N1CCC[C@H]1C(=O)NCC(=O)N[C@@H](Cc1ccccc1)C(=O)N[C@@H](CO)C(=O)N1CCC[C@H]1C(=O)N[C@@H](Cc1ccccc1)C(=O)O [Des-Arg^9-BK],effect on rabbit IOP,[4],not
same,Emax,[5],70 to 77%
CNC(=O)c1ccc(/C=C/C(=O)NCC(=O)N(C)c2ccc(Cl)c(COc3cccc4ccc(C)nc34)c2Cl)cc1 [FR-165649],Ki,[1],393 nM and 337 nM
same,% Change in IOP (mmHg),[6]; Dose 1/1 hr post-dose,1.0 ± 3.1%
same,% Change in IOP (mmHg),[6]; Dose 1/3 hr post-dose,0.7 ± 3.5%
same,% Change in IOP (mmHg),[6]; Dose 1/6 hr post-dose,−6.2 ± 4.7%
same,% Change in IOP (mmHg),[6]; Dose 1/24 hr post-dose,−4.0 ± 3.2%
same,modulation of IOP (in words),[6],failed to modulate IOP
same,Ki,[3],11 nM and 4 nM
Cc1nc2c(OCc3c(Cl)ccc(N(C)C(=O)CNC(=O)/C=C/c4ccc(C(=O)N(C)C)cc4)c3Cl)cccn2c1Br [FR-167344],Ki,[1],393 nM and 223 nM
same,Ki,[2],69 nM and 19 nM
same,Ki,[3],13 nM and 4 nM
CSCC[C@H](N)C(=O)N[C@@H](CCCCN)C(=O)N[C@@H](CCCNC(=N)N)C(=O)N1CCC[C@H]1C(=O)N1CCC[C@H]1C(=O)NCC(=O)N[C@@H](Cc1ccccc1)C(=O)N[C@@H](CO)C(=O)N1CCC[C@H]1C(=O)N[C@@H](Cc1ccccc1)C(=O)N[C@@H](CCCNC(=N)N)C(=O)O [Met-Lys-BK],Emax,[5],70 to 77%
O=C(O)CCC/C=C\C[C@@H]1[C@@H](/C=C/[C@@H](O)COc2cccc(C(F)(F)F)c2)[C@H](O)C[C@@H]1O (racemic) [fluprostenol],production of prostaglandins,[7],stimulation of production and release of endogenous prostaglandins
CCCC[P+](CCCC)(CCCC)Cc1ccc(NC(=O)[C@H](Cc2ccc3ccccc3c2)NC(=NC2CCCCC2)NC2CCCCC2)cc1.[Cl-] [WIN-64338],% Change in IOP (mmHg),[6]; Dose 1/1 hr post-dose,1.7 ± 1.6%
same,% Change in IOP (mmHg),[6]; Dose 1/3 hr post-dose,−10.4 ± 2.8%
same,% Change in IOP (mmHg),[6]; Dose 1/6 hr post-dose,1.3 ± 1.3%
same,modulation of IOP (in words),[6],failed to modulate IOP
B1,"Normalized level of B2-receptor mRNA (GC-RMA, mean ± SEM)","[8]; Glaucomatous h-TM cells, after 1.5 hr, control 0.99 ± 0.04",0.97 ± 0.06
same,"Normalized level of B2-receptor mRNA (GC-RMA, mean ± SEM)","[8]; Glaucomatous h-TM cells, after 16 hr, control 0.99 ± 0.04",0.24 ± 0.06
same,"Normalized level of B2-receptor mRNA (GC-RMA, mean ± SEM)","[8]; Normal h-TM cells, after 1.5 hr, control 0.99 ± 0.06",0.68 ± 0.05
same,"Normalized level of B2-receptor mRNA (GC-RMA, mean ± SEM)","[8]; Normal h-TM cells, after 16 hr, control 0.99 ± 0.06",0.14 ± 0.11
same,"Normalized level of B1-receptor mRNA (GC-RMA, mean ± SEM)",[9]; after 1.5 hr,1.54 ± 0.09
same,"Normalized level of B1-receptor mRNA (GC-RMA, mean ± SEM)",[9]; after 16 hr,0.53 ± 0.05
